Results reported in patent US12129475B2, “Glycoalkaloid metabolism enyzymes (GAMES) and uses thereof” (priority 2017, dated 2024).

Key:
potato GAME25 = test: In vitro assay of recombinant potato GAME25 (Sf9 microsomes, NAD+); type: biochemical, Solanum tuberosum; details: 100 μM substrate, NAD+ 150 μM, pH 7.4, 37° C., 4 hrs; LC-MS
Experimental: (§1) For enzyme assay experiments, an additional MS-MS analysis with a collision energy ramp from 20 to 50 eV was performed to identify the structures of the enzymatic reaction products. The solanid-4-en-3-one product was identified based on the comparison of its retention time and MS-MS spectrum to those measured for its corresponding standard. Another three products (tomatid-4-en-3-one, solasod-4-en-3-one and diosgen-4-en-3-one) were putatively assigned as follows: first, elemental composition based on accurate masses and the isotopic pattern was calculated using the MassLynx software. Then the MS-MS fragmentation pattern was analyzed, and the fragments were assigned applying the fragmentation rules for steroid-based compounds.
(§2) Each expression vector construct was co-transfected with the ProGreen GFP linearized baculovirus DNA (AB vector) to generate the recombinant viruses in Spodoptera frugiperda (Sf9) insect cells. Infection efficiency was monitored by fluorescence of recombinant GFP viruses infected cells. Sf9 cells were grown in ESF921, protein free culture medium (Expression Systems). Three days post-infection cells were collected and washed twice in PBS. Microsomal fractions were isolated by suspending the cell pellet in 20 mM potassium phosphate buffer pH 7.25, 20% (v/v) glycerol, 1 mM EDTA and 1 mM DTT. The resuspended cells were sonicated, and the cell debris was removed by centrifugation at 10,000×g for 15 min. The supernatant was further centrifuged at 100,000×g for 60 min. The pellet containing the microsomal fractions was homogenized in lysis buffer. GAME25 was expressed with a myc-tag at the C-terminus. The isolated microsomal fractions were analyzed by SDS-PAGE and immune-blot with c-myc antibodies (A2S Technologies Ltd.).
(§3) The steroidal alkaloid aglycones dehydrotomatidine, solanidine and solasodine as well as their glycosylated forms (i.e. SGAs) α-tomatine, α-solanine, α-chaconine and α-solamargine were used as substrates for GAME25 enzyme assays. In vitro assays for the tomato and potato recombinant GAME25 enzymes were performed as follows: Briefly, microsomal fractions of Sf9 cells expressing tomato or potato GAME25 proteins (0.2 mg total protein was used per reaction) were separately incubated in sodium phosphate buffer (pH 7.4) with 100 μM of each individual substrate (details are mentioned above), DTT (5 mM) and NAD^+ (150 μM) at 37° C. for 4 hrs. The reactions were stopped by addition of 300 μl of 80% methanol and 0.1% formic acid, followed by brief vortex and sonication for 15 min. Finally, the extracts were centrifuged for 15 min at 14,000×g, filtered through 0.22 μm filters, and analyzed by LC-MS (see Plant extracts preparation and targeted profiling of steroidal metabolites section above). Sf9 cells (without the baculovirus vector) microsomes were used in control enzyme reactions.

tomato GAME25 [1] = test: In vitro assay of recombinant tomato GAME25 (Sf9 microsomes, NAD+); type: biochemical, Solanum lycopersicum; details: 100 μM substrate, NAD+ 150 μM, pH 7.4, 37° C., 4 hrs; LC-MS
Experimental: as §1, §2, §3

SlGAME31 = test: Enzymatic activity assay of recombinant SlGAME31 (hydroxylation of SA/SGAs); type: biochemical, Solanum lycopersicum
Experimental: (§4) GAME31 was amplified from cDNA (SEQ ID NO: 17) and cloned into pET28 vector by restriction free (RF) cloning as described previously (Unger et al., 2010, J Struct Biol. 172:34-44).
(§5) The resulting plasmids were verified by sequencing and transformed to E. coli BL21 DE3. For isolation of the GAME31-His tagged enzymes, fresh overnight cultures were diluted 1:100 in 1000 ml of LB medium (Formedium) with 50 μg/ml kanamycin and incubated at 37° C. and 250 rpm until an A600 nm of 0.5 was reached. Subsequently, for induction of expression of the recombinant proteins, IPTG was added to a final concentration of […] and the incubation was continued overnight at 16° C. and 250 rpm. Then cells were harvested by centrifugation at 10,000×g and bacteria were lysed by sonication in a buffer (pH 7.4) containing 0.02 M NaH2PO4 0.02 M, 0.5 M NaCl, and SIGMAFAST protease inhibitor tablets (Sigma-Aldrich) and benzonase nuclease (Sigma-Aldrich) according to manufacturer's instructions. Lysed cultures were centrifuged, and the soluble fraction was purified by nickel affinity chromatography which was operated with an AKTA liquid chromatography system (AKTA avant, GE Healthcare) according to the manufacturer's instructions. Proteins were stored at −80° C. until further analysis.
All the SA/SGAs substrates were prepared at a concentration of 1 mg/ml, dissolved in methanol, except dehydrotomatine that was prepared in DMSO. The enzymatic activity was performed according to Kawai et al. (2014) Evolution and diversity of the 2-oxoglutarate-dependent dioxygenase superfamily in plants. Plant J. 78: 328-43. Briefly, the standard full reaction (100 μL) consisted of 10 mM L-ascorbic acid, 10 mM α-ketoglutaric acid, 500 μM FeSO4, 20 μM substrate, 50 mM potassium phosphate buffer (pH 7.5) and purified enzyme. All the components, except the enzyme, were pre-incubated for 10 min at 30° C., after which the reaction was started by addition of the enzyme. After incubation at 30° C. for 1 h, the reaction was stopped by freezing in liquid nitrogen Finally, the reaction was mixed with 300 μL methanol, extracted and analyzed by UPLC-qTOF-MS as described above.

SmGAME31 = test: Enzymatic activity assay of recombinant SmGAME31 (hydroxylation of SA/SGAs); type: biochemical, Solanum melongena; details: full reaction, 20 μM substrate, 30° C., 1 h
Experimental: as §4
as §5, with “Lysed cultures were centrifuged, and the soluble fraction was purified by nickel affinity chromatography which was operated with an AKTA liquid chromatography system (AKTA avant, GE Healthcare) according to the manufacturer's instructions. Proteins were stored at −80° C. until further analysis.” left out
All the SA/SGAs substrates were prepared at a concentration of 1 mg/ml, dissolved in methanol, except dehydrotomatine that was prepared in DMSO. […] After incubation at 30° C. for 1 h, the reaction was stopped by freezing in liquid nitrogen Finally, the reaction was mixed with 300 μL methanol, extracted and analyzed by UPLC-qTOF-MS as described above.

plant cells = details: cited from earlier work
tomato GAME25 [2] = test: In vitro assay of purified recombinant tomato GAME25 expressed in E. coli; type: biochemical, Solanum lycopersicum; details: purified enzyme (5 μg), NAD+ cofactor
Experimental: as §1
GAME25 and GAME35 genes were cloned into pET28 vector separately and expressed in E. coli BL21 (DE3). Bacterial cells were grown in LB medium at 37° C. When cultures reached A600=0.6, protein expression was induced with 200 μM of isopropyl-1-thio-β-d-galactopyranoside (IPTG) at 15° C. for 24 h. Bacterial cells were lysed by sonication in 50 mM Tris-HCl pH 7.5, 500 mM NaCl, 1 mM PMSF and protease inhibitor cocktail (Calbiochem). An aliquot of whole cell extract was kept for further analysis. […] The whole cell extract and the eluted fractions were analyzed by SDS-PAGE staining with InstatBlue and by Western blot with HRP conjugated anti-His antibodies (Sigma). […]

GAME35 = GAME35 enzyme assay; type: biochemical, tomato; details: 150 μM substrate, NADH or NADPH, 30° C., 3 hrs
Experimental: GAME25 and GAME35 genes were cloned into pET28 vector separately and expressed in E. coli BL21 (DE3). Bacterial cells were grown in LB medium at 37° C. When cultures reached A600=0.6, protein expression was induced with 200 μM of isopropyl-1-thio-β-d-galactopyranoside (IPTG) at 15° C. for 24 h. Bacterial cells were lysed by sonication in 50 mM Tris-HCl pH 7.5, 500 mM NaCl, 1 mM PMSF and protease inhibitor cocktail (Calbiochem). An aliquot of whole cell extract was kept for further analysis. Soluble protein was purified using Ni-NTA agarose beads (Adar Biotech) and eluted with 500 mM imidazole in buffer containing 50 mM NaH2PO4 pH-7.5 and 300 mM NaCl. The whole cell extract and the eluted fractions were analyzed by SDS-PAGE staining with InstatBlue and by Western blot with HRP conjugated anti-His antibodies (Sigma).
Purified GAME35 protein (5 μg) was incubated with solanid-4-en-3-one substrate (150 μM), DTT (1 mM), NADH or NADPH (500 μM) in sodium phosphate buffer (pH 7.4) at 30° C. for 3 hrs. The reactions were stopped by addition of 250 μl of 80% methanol and 0.1% formic acid, and followed by brief vortex and sonication for 15 min. Finally, the extracts were centrifuged for 10 min at 13,000×g and filtered through 0.22 μm filters, and analyzed by LC-MS, as described in the section above (plant extracts preparation and targeted profiling of steroidal metabolites). […]

animals and humans = details: studies in animal models; cited from earlier work
[3] = full reaction: ketoglutaric acid, ascorbic acid, FeSO4, 20 μM substrate, 30° C., 1 h

Compound | activity with substrate / product formed (potato GAME25) | activity with substrate / product formed (tomato GAME25 [1]) | hydroxylation of substrate (SlGAME31; [3]) | further results
cholestenol | not reactive | not reactive |  | 
C[C@H]1CC[C@]2(NC1)O[C@H]1C[C@H]3[C@@H]4CC[C@H]5C[C@@H](O)CC[C@]5(C)[C@H]4CC[C@]3(C)[C@H]1[C@@H]2C [tomatidine] |  |  | did not show activity | hydroxylation of substrate (SmGAME31): did not hydroxylate; toxicity to plant cells (plant cells): highly toxic
C[C@@H]1CC[C@@]2(NC1)O[C@H]1C[C@H]3[C@@H]4CC=C5C[C@@H](O)CC[C@]5(C)[C@H]4CC[C@]3(C)[C@H]1[C@@H]2C [solasodine] | solasod-4-en-3-one | solasod-4-en-3-one |  | 
C[C@H]1CC[C@@H]2[C@@H](C)[C@H]3[C@H](C[C@H]4[C@@H]5CC=C6C[C@@H](O[C@@H]7O[C@H](CO)[C@H](O[C@@H]8O[C@@H](C)[C@H](O)[C@@H](O)[C@H]8O)[C@H](O)[C@@H]7O[C@@H]7O[C@@H](C)[C@@H](O)[C@@H](O)[C@H]7O)CC[C@]6(C)[C@H]5CC[C@]34C)N2C1 [α-chaconine] | no activity | no activity |  | 
C[C@@H]1CC[C@@]2(NC1)O[C@H]1C[C@H]3[C@@H]4CC=C5C[C@@H](O[C@@H]6O[C@H](CO)[C@@H](O[C@@H]7O[C@@H](C)[C@H](O)[C@@H](O)[C@H]7O)[C@H](O)[C@H]6O[C@@H]6O[C@@H](C)[C@H](O)[C@@H](O)[C@H]6O)CC[C@]5(C)[C@H]4CC[C@]3(C)[C@H]1[C@@H]2C [α-solamargine] | no activity | no activity | generating hydroxysolamargine | hydroxylation of substrate (SmGAME31): performed hydroxylation
C[C@H]1CC[C@]2(NC1)O[C@H]1C[C@H]3[C@@H]4CC=C5C[C@@H](O[C@@H]6O[C@H](CO)[C@H](O[C@@H]7O[C@H](CO)[C@@H](O)[C@H](O[C@@H]8OC[C@@H](O)[C@H](O)[C@H]8O)[C@H]7O[C@@H]7O[C@H](CO)[C@@H](O)[C@H](O)[C@H]7O)[C@H](O)[C@H]6O)CC[C@]5(C)[C@H]4CC[C@]3(C)[C@H]1[C@@H]2C [dehydrotomatine] | no activity | no activity | did perform hydroxylation | 
C[C@@H]1CC[C@@]2(OC1)O[C@H]1C[C@H]3[C@@H]4CC=C5C[C@@H](O)CC[C@]5(C)[C@H]4CC[C@]3(C)[C@H]1[C@@H]2C [diosgenin] |  |  |  | product formed from substrate (tomato GAME25 [2]): diosgen-4-en-3-one
CC(C)CCC[C@@H](C)[C@H]1CC[C@H]2[C@@H]3CC=C4C[C@@H](O)CC[C@]4(C)[C@H]3CC[C@]12C [cholesterol] | not reactive | not reactive |  | 
C[C@H]1CC[C@@H]2[C@@H](C)C3C(CC4C5CCC6=CC(=O)CCC6(C)C5CCC43C)N2C1 (stereo partly shown) [solanid-4-en-3-one] |  |  |  | activity with substrate (GAME35): did not react
C[C@H]1CC[C@]2(NC1)O[C@H]1C[C@H]3[C@@H]4CC[C@H]5C[C@@H](O[C@@H]6O[C@H](CO)[C@H](O[C@@H]7O[C@H](CO)[C@@H](O)[C@H](O[C@@H]8OC[C@@H](O)[C@H](O)[C@H]8O)[C@H]7O[C@@H]7O[C@H](CO)[C@@H](O)[C@H](O)[C@H]7O)[C@H](O)[C@H]6O)CC[C@]5(C)[C@H]4CC[C@]3(C)[C@H]1[C@@H]2C [α-tomatine] | no activity | no activity | forming hydroxytomatine | hydroxylation of substrate (SlGAME31; absence of iron): minor amounts of hydroxytomatine were still generated; hydroxylation of substrate (SlGAME31; removal of either cofactor (ketoglutaric or ascorbic acid)): lack of activity; toxicity to animals and humans compared to SGAs possessing the C-5,6 double bond (e.g. α-chaconine and α-solanine) (animals and humans): much less toxic
C[C@H]1CC[C@@H]2[C@@H](C)[C@H]3[C@H](C[C@H]4[C@@H]5CC=C6C[C@@H](O)CC[C@]6(C)[C@H]5CC[C@]34C)N2C1 [solanidine] | solanid-4-en-3-one | solanid-4-en-3-one |  | product formed from substrate (tomato GAME25 [2]): solanid-4-en-3-one
C[C@H]1CC[C@@H]2[C@@H](C)[C@H]3[C@H](C[C@H]4[C@@H]5CC=C6C[C@@H](O[C@@H]7O[C@H](CO)[C@H](O)[C@H](O[C@@H]8O[C@H](CO)[C@@H](O)[C@H](O)[C@H]8O)[C@H]7O[C@@H]7O[C@@H](C)[C@H](O)[C@@H](O)[C@H]7O)CC[C@]6(C)[C@H]5CC[C@]34C)N2C1 [α-solanine] | no activity | no activity |  | 
C[C@H]1CC[C@]2(NC1)O[C@H]1C[C@H]3[C@@H]4CC=C5C[C@@H](O)CC[C@]5(C)[C@H]4CC[C@]3(C)[C@H]1[C@@H]2C [dehydrotomatidine] | tomatid-4-en-3-one | tomatid-4-en-3-one |  | toxicity to plant cells (plant cells): highly toxic
